Measurements reported in publication PMC12736255, “Reinvestigating Pyrrol-2-One-Based Compounds: From Antimicrobial Agents to Promising Antitumor Candidates” (Pharmaceuticals, 2025).
Marks after values point to notes of the source that are not given here.

What was measured:
SK-MEL-2 [1] = assay: NCI-60 5-dose screen; assay type: cell-based, human; settings: for GI50 / CC50: Homo sapiens; for CC50: read-out: LC50 (the source's name)
A549/ATCC = assay: NCI-60 5-dose screen; assay type: cell-based, human; settings: for GI50 / CC50: Homo sapiens; for CC50: read-out: LC50 (the source's name)
IGROV1 = assay: NCI-60 5-dose screen; assay type: cell-based, human; settings: for GI50 / CC50: Homo sapiens; for GI50: IGROV-1; for CC50: IGROV-1, read-out: LC50 (the source's name)
PC-3 = assay: NCI-60 5-dose screen; assay type: cell-based, human; settings: for GI50 / CC50: Homo sapiens; for CC50: read-out: LC50 (the source's name)
HS 578T = assay: NCI-60 5-dose screen; assay type: cell-based, human; settings: for GI50 / CC50: Homo sapiens; for CC50: read-out: LC50 (the source's name)
MOLT-4 = assay: NCI-60 single-dose screen; assay type: cell-based; settings: Homo sapiens; MOLT-4, 10^–5 M; read-out: GI (%)
In short: (§1)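 Testing used one compound level, 10^−5 M, on the NCI human cancer cell line panel (60 lines; leukemia through breast).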

SK-MEL-2 [2] = assay: NCI-60 single-dose screen; assay type: cell-based; settings: Homo sapiens; SK-MEL-2, 10^–5 M; read-out: GI (%)
In short: as §1

SF-268 = assay: NCI-60 single-dose screen; assay type: cell-based; settings: Homo sapiens; SF-268, 10^–5 M; read-out: GI (%)
In short: as §1

786-0 = assay: NCI-60 single-dose screen; assay type: cell-based; settings: Homo sapiens; 786-0, 10^–5 M; read-out: GI (%)
In short: as §1

OVCAR-8 = assay: NCI-60 single-dose screen; assay type: cell-based; settings: Homo sapiens; OVCAR-8, 10^–5 M; read-out: GI (%)
In short: as §1

NCI-H460 = assay: NCI-60 single-dose screen; assay type: cell-based; settings: Homo sapiens; NCI-H460, 10^–5 M; read-out: GI (%)
In short: as §1

UACC-62 = assay: NCI-60 single-dose screen; assay type: cell-based; settings: Homo sapiens; UACC-62, 10^–5 M; read-out: GI (%)
In short: as §1

HOP-92 [3] = assay: NCI-60 single-dose screen; assay type: cell-based; settings: Homo sapiens; HOP-92, 10^–5 M; read-out: GI (%)
In short: as §1

HCT-15 = assay: NCI-60 single-dose screen; assay type: cell-based; settings: Homo sapiens; HCT-15, 10^–5 M; read-out: GI (%)
In short: as §1

SW-620 = assay: NCI-60 single-dose screen; assay type: cell-based; settings: Homo sapiens; SW-620, 10^–5 M; read-out: GI (%)
In short: as §1

CCRF-CEM = assay: NCI-60 single-dose screen; assay type: cell-based; settings: Homo sapiens, 10^–5 M, read-out: GI (%)
In short: as §1

HCC-2998 = assay: NCI-60 single-dose screen; assay type: cell-based; settings: Homo sapiens; HCC-2998, 10^–5 M; read-out: GI (%)
In short: as §1

MDA-MB-468 = assay: NCI-60 5-dose screen; assay type: cell-based, human; settings: for GI50 / CC50: Homo sapiens; for CC50: read-out: LC50 (the source's name)
KM12 = assay: NCI-60 5-dose screen; assay type: cell-based, human; settings: for GI50 / CC50: Homo sapiens; for CC50: read-out: LC50 (the source's name)
ACHN = assay: NCI-60 5-dose screen; assay type: cell-based, human; settings: for GI50 / CC50: Homo sapiens; for CC50: read-out: LC50 (the source's name)
HOP-92 [4] = assay: NCI-60 5-dose screen; assay type: cell-based, human; settings: for GI50 / CC50: Homo sapiens; for CC50: read-out: LC50 (the source's name)
TK-10 = assay: NCI-60 5-dose screen; assay type: cell-based, human; settings: for GI50 / CC50: Homo sapiens; for CC50: read-out: LC50 (the source's name)
RXF 393 = assay: NCI-60 5-dose screen; assay type: cell-based, human; settings: for GI50 / CC50: Homo sapiens; for CC50: read-out: LC50 (the source's name)
MDA-MB-231/ATCC = assay: NCI-60 5-dose screen; assay type: cell-based, human; settings: for GI50 / CC50: Homo sapiens; for CC50: read-out: LC50 (the source's name)
EKVX = assay: NCI-60 single-dose screen; assay type: cell-based, human; settings: 10^–5 M; for inhibition at 10 µM: Homo sapiens, read-out: GI (%)
Source text: (§2) In the next step, all synthesized compounds were electronically submitted and accepted for testing to the National Cancer Institute (NCI) platform, for the single dose (10^−5 M) screening against a panel of 60 human tumor cell lines, representing leukemia, melanoma, and cancers of the lung, colon, central nervous system, ovary, kidney, prostate, and breast. The results are summarized in Table 2, with the best values highlighted in red (Figures S1–S14).

NCI-H226 = assay: NCI-60 single-dose screen; assay type: cell-based, human; settings: NCI-H226, 10^–5 M; for inhibition at 10 µM: Homo sapiens, read-out: GI (%)
Source text: as §2

HL-60(TB) = assay: NCI-60 5-dose screen; assay type: cell-based, human; settings: for GI50 / CC50: Homo sapiens; for CC50: read-out: LC50 (the source's name)
COLO 205 = assay: NCI-60 5-dose screen; assay type: cell-based, human; settings: for GI50 / CC50: Homo sapiens; for CC50: read-out: LC50 (the source's name)
RPMI-8226 = assay: NCI-60 5-dose screen; assay type: cell-based, human; settings: for GI50 / CC50: Homo sapiens; for CC50: read-out: LC50 (the source's name)

O=C1C(Nc2ccc(I)cc2)=CC(c2ccc(C(F)(F)F)cc2)N1c1ccc(I)cc1 (centres unmarked) [3e]
TGI (SK-MEL-2 [1]): >100 µM | GI50 (SK-MEL-2 [1]): > 100 µM | CC50 (SK-MEL-2 [1]): > 100 µM | TGI (A549/ATCC): >100 µM | GI50 (A549/ATCC): > 100 µM | CC50 (A549/ATCC): > 100 µM | TGI (IGROV1): >100 µM | GI50 (IGROV1): > 100 µM | CC50 (IGROV1): > 100 µM | TGI (PC-3): >100 µM | GI50 (PC-3): 9.99 µM | CC50 (PC-3): > 100 µM | TGI (HS 578T): 9.97 µM | GI50 (HS 578T): 3.45 µM | CC50 (HS 578T): > 100 µM | inhibition at 10 µM (MOLT-4): 75% | inhibition at 10 µM (SK-MEL-2 [2]): 100% | inhibition at 10 µM (SF-268): 100% | inhibition at 10 µM (786-0): 76% | inhibition at 10 µM (OVCAR-8): 43% | inhibition at 10 µM (NCI-H460): 43% | inhibition at 10 µM (UACC-62): 12% | inhibition at 10 µM (HOP-92 [3]): 62% | inhibition at 10 µM (HCT-15): 12% | inhibition at 10 µM (SW-620): 47% | inhibition at 10 µM (CCRF-CEM): 100% | inhibition at 10 µM (HCC-2998): 0% | TGI (MDA-MB-468): >100 µM | GI50 (MDA-MB-468): 3.24 µM | CC50 (MDA-MB-468): > 100 µM | TGI (KM12): >100 µM | GI50 (KM12): > 100 µM | CC50 (KM12): > 100 µM | TGI (ACHN): >100 µM | GI50 (ACHN): 4.05 µM | CC50 (ACHN): > 100 µM | TGI (HOP-92 [4]): 7.22 µM | GI50 (HOP-92 [4]): 3.15 µM | CC50 (HOP-92 [4]): > 100 µM | TGI (TK-10): >100 µM | GI50 (TK-10): > 100 µM | CC50 (TK-10): > 100 µM | TGI (RXF 393): >100 µM | GI50 (RXF 393): 4.23 µM | CC50 (RXF 393): > 100 µM | TGI (MDA-MB-231/ATCC): >100 µM | GI50 (MDA-MB-231/ATCC): 5.36 µM | CC50 (MDA-MB-231/ATCC): > 100 µM | GI (%) (EKVX): 100 ^d % | inhibition at 10 µM (EKVX): 100% | inhibition at 10 µM (NCI-H226): 100% | GI (%) (NCI-H226): 100 ^e % | TGI (HL-60(TB)): >100 µM | GI50 (HL-60(TB)): 4.48 µM | CC50 (HL-60(TB)): > 100 µM | TGI (COLO 205): >100 µM | GI50 (COLO 205): 4.57 µM | CC50 (COLO 205): > 100 µM | TGI (RPMI-8226): >100 µM | GI50 (RPMI-8226): 5.38 µM | CC50 (RPMI-8226): > 100 µM

O=C1C(Nc2ccc(I)cc2)=CC(c2ccc(F)cc2)N1c1ccc(I)cc1 (centres unmarked) [3b]
inhibition at 10 µM (MOLT-4): 66% | inhibition at 10 µM (SK-MEL-2 [2]): 31% | inhibition at 10 µM (SF-268): 68% | inhibition at 10 µM (786-0): 27% | inhibition at 10 µM (OVCAR-8): 8% | inhibition at 10 µM (NCI-H460): 17% | inhibition at 10 µM (UACC-62): 0% | inhibition at 10 µM (HOP-92 [3]): 36% | inhibition at 10 µM (HCT-15): 9% | inhibition at 10 µM (SW-620): 24% | inhibition at 10 µM (CCRF-CEM): 74% | inhibition at 10 µM (HCC-2998): 0% | inhibition at 10 µM (EKVX): 24% | inhibition at 10 µM (NCI-H226): 4%

O=C1C(Nc2ccc(I)cc2)=CC(c2ccc(Br)cc2)N1c1ccc(I)cc1 (centres unmarked) [3d]
inhibition at 10 µM (MOLT-4): 20% | inhibition at 10 µM (SK-MEL-2 [2]): 16% | inhibition at 10 µM (SF-268): 15% | inhibition at 10 µM (786-0): 6% | inhibition at 10 µM (OVCAR-8): 0% | inhibition at 10 µM (NCI-H460): 0% | inhibition at 10 µM (UACC-62): 0% | inhibition at 10 µM (HOP-92 [3]): 0% | inhibition at 10 µM (HCT-15): 13% | inhibition at 10 µM (SW-620): 16% | inhibition at 10 µM (CCRF-CEM): 17% | inhibition at 10 µM (HCC-2998): 0% | inhibition at 10 µM (EKVX): 36% | inhibition at 10 µM (NCI-H226): 17%

N#Cc1ccc(C2C=C(Nc3ccc(I)cc3)C(=O)N2c2ccc(I)cc2)cc1 (centres unmarked) [3l]
TGI (SK-MEL-2 [1]): >100 µM | GI50 (SK-MEL-2 [1]): 3.7 µM | CC50 (SK-MEL-2 [1]): > 100 µM | TGI (A549/ATCC): >100 µM | GI50 (A549/ATCC): 8.08 µM | CC50 (A549/ATCC): > 100 µM | TGI (IGROV1): >100 µM | GI50 (IGROV1): 8.67 µM | CC50 (IGROV1): > 100 µM | TGI (PC-3): >100 µM | GI50 (PC-3): 2.4 µM | CC50 (PC-3): > 100 µM | TGI (HS 578T): 5.64 µM | GI50 (HS 578T): 2.1 µM | CC50 (HS 578T): > 100 µM | inhibition at 10 µM (MOLT-4): 78% | inhibition at 10 µM (SK-MEL-2 [2]): 100% | inhibition at 10 µM (SF-268): 93% | inhibition at 10 µM (786-0): 55% | inhibition at 10 µM (OVCAR-8): 30% | inhibition at 10 µM (NCI-H460): 40% | inhibition at 10 µM (UACC-62): 17% | inhibition at 10 µM (HOP-92 [3]): 75% | inhibition at 10 µM (HCT-15): 21% | inhibition at 10 µM (SW-620): 50% | inhibition at 10 µM (CCRF-CEM): 74% | inhibition at 10 µM (HCC-2998): 50% | TGI (MDA-MB-468): >100 µM | GI50 (MDA-MB-468): 2.7 µM | CC50 (MDA-MB-468): > 100 µM | TGI (KM12): >100 µM | GI50 (KM12): 9.7 µM | CC50 (KM12): > 100 µM | TGI (ACHN): >100 µM | GI50 (ACHN): 5.36 µM | CC50 (ACHN): > 100 µM | TGI (HOP-92 [4]): 4.89 µM | GI50 (HOP-92 [4]): 1.46 µM | CC50 (HOP-92 [4]): > 100 µM | TGI (TK-10): >100 µM | GI50 (TK-10): 3.85 µM | CC50 (TK-10): > 100 µM | TGI (RXF 393): >100 µM | GI50 (RXF 393): 3.72 µM | CC50 (RXF 393): > 100 µM | TGI (MDA-MB-231/ATCC): 9.63 µM | GI50 (MDA-MB-231/ATCC): 2.5 µM | CC50 (MDA-MB-231/ATCC): > 100 µM | inhibition at 10 µM (EKVX): 100% | inhibition at 10 µM (NCI-H226): 100% | GI (%) (NCI-H226): 100 ^i1% | TGI (HL-60(TB)): >100 µM | GI50 (HL-60(TB)): > 100 µM | CC50 (HL-60(TB)): > 100 µM | TGI (COLO 205): >100 µM | GI50 (COLO 205): 5.29 µM | CC50 (COLO 205): > 100 µM | TGI (RPMI-8226): >100 µM | GI50 (RPMI-8226): 3.07 µM | CC50 (RPMI-8226): > 100 µM
